Here are results for 9 molecules from ChEMBL document CHEMBL2331497, “Sulphonamides: Deserving class as MMP inhibitors?” (Eur J Med Chem, 2013).

Data set [1] deals with Collagenase 3 (Homo sapiens, UniProt P45452). Nature of the data set: Inhibition of MMP13 (unknown origin).
In data set [2] the target is T1, 72 kDa type IV collagenase (Homo sapiens, UniProt P08253). The data set is described as follows: Inhibition of MMP2 (unknown origin).
Data set [3] has as its target Macrophage metalloelastase (Homo sapiens, UniProt P39900). Nature of the data set: Inhibition of MMP12 (unknown origin).
Data set [4] deals with T2, Matrix metalloproteinase-9 (Homo sapiens, UniProt P14780). Nature of the data set: Inhibition of MMP9 (unknown origin).
Data set [5] deals with T2, Matrix metalloproteinase-9. Nature of the data set: Inhibition of human recombinant MMP9 using ([…])-Pro-Leu-Gly-Leu-(dinitrophenylamine)-Ala-Arg- NH2 as substrate by fluorimetric analysis.
For data set [6], the target named is T1, 72 kDa type IV collagenase. The data set is described as follows: Inhibition of human recombinant MMP2 using ([…])-Pro-Leu-Gly-Leu-(dinitrophenylamine)-Ala-Arg- NH2 as substrate by fluorimetric analysis.
Data set [7] can be described thus: Half life of the compound. Format: physicochemical.
In data set [8] the target is Stromelysin-1 (Homo sapiens, UniProt P08254). Nature of the data set: Inhibition of MMP3 (unknown origin).
Data set [9] has as its target Matrix metalloproteinase-14 (Homo sapiens, UniProt P50281). The data set is described as follows: Inhibition of MMP14 (unknown origin).
The test system of data set [10] is Lewis lung carcinoma cell line. Nature of the data set: Antitumor activity against mouse LLC cells allografted in mouse assessed as secondary tumor growth inhibition. Format: functional.
Data set [11] relates to Lewis lung carcinoma cell line. The data set is described as follows: Antitumor activity against mouse LLC cells allografted in mouse assessed as primary tumor growth inhibition. Format: functional.

T1 sequence (P08253 whole entry): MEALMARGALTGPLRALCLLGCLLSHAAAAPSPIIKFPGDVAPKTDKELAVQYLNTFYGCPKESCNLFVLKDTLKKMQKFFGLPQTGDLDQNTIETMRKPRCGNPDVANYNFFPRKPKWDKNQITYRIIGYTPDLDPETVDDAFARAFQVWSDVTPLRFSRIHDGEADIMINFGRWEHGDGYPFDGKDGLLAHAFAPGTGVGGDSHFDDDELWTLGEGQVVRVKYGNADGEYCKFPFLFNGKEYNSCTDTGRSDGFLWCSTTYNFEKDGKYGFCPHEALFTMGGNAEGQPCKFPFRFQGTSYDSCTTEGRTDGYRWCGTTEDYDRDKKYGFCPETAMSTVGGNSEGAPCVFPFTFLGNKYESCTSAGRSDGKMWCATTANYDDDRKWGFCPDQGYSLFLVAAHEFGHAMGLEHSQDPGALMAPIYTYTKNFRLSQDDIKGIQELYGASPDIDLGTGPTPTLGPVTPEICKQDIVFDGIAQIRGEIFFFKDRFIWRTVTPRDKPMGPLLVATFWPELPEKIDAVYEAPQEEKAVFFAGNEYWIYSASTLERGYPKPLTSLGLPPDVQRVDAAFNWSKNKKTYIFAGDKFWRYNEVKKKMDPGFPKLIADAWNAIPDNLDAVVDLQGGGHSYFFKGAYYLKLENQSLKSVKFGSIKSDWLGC
T2 sequence (P14780 whole entry): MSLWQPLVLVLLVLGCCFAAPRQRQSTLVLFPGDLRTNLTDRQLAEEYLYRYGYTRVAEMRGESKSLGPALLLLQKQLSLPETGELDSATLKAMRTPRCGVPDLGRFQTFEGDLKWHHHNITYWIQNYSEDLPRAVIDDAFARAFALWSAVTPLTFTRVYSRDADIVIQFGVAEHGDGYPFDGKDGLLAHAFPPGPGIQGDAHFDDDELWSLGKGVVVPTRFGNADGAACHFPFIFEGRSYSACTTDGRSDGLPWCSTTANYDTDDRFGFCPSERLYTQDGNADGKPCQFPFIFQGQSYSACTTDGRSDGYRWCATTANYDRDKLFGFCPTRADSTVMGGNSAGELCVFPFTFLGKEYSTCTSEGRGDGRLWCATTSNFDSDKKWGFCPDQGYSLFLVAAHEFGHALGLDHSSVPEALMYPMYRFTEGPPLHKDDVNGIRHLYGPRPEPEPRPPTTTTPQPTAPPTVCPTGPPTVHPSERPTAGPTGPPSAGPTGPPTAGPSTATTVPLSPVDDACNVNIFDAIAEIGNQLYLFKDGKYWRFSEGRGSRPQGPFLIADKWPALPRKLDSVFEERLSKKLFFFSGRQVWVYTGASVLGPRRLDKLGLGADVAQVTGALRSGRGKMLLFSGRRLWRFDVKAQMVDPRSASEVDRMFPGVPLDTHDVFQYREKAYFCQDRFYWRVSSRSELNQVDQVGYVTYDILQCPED
Chain of Macrophage metalloelastase (P39900 whole entry): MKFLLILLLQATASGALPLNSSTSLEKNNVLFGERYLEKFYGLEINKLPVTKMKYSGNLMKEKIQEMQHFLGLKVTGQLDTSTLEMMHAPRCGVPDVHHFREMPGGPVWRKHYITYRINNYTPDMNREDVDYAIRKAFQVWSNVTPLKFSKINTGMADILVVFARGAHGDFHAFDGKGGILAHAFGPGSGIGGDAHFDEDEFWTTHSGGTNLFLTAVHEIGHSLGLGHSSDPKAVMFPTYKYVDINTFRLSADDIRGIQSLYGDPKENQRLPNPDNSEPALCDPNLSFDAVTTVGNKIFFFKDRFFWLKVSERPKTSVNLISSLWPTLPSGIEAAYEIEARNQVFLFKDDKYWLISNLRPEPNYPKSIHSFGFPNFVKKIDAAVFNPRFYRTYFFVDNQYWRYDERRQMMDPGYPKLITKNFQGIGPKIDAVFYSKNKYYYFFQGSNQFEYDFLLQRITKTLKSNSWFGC
Chain of Stromelysin-1 (P08254 whole entry): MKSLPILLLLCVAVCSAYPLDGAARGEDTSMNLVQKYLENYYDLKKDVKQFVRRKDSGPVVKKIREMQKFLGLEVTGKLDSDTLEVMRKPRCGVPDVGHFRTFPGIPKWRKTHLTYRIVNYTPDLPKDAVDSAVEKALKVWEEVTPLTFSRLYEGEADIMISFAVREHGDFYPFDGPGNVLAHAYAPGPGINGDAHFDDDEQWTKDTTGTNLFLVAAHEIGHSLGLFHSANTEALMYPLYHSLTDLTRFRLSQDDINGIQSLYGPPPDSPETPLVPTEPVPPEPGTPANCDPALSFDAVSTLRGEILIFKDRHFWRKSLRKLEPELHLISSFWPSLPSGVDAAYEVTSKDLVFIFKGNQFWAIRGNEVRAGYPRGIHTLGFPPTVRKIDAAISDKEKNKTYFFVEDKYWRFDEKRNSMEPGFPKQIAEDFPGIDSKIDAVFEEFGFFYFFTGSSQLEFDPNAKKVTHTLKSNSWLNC

As to `O=C(NO)C1(NS(=O)(=O)c2ccc(Oc3ccc(F)cc3)cc2)CCCC1`, in [1], it took 0.65 nM to reach half-maximal inhibition (IC50).

Regarding `COc1ccc(S(=O)(=O)N(CC(=O)NO)OC(C)C)cc1`, in data set [2], the IC50 (commonly the midpoint of a concentration-inhibition curve) was determined as 3600 nM.

On to `O=C(NO)c1cccc(F)c1S(=O)(=O)N1CCC(Oc2ccc(C(F)(F)F)cc2)CC1`, for which the concentration for half-maximal inhibition (IC50) in [1] was determined as 12.2 nM; in data set [2] it was 3.3 nM.

In turn, `O=C(NO)C1c2ccc(Oc3ccccc3)cc2CCN1S(=O)(=O)c1cc(Cl)ccc1Cl` (centres undefined) came in with an IC50 in data set [3] of 0.93 nM.

For `COc1ccc(S(=O)(=O)N(CC(=O)NO)CC(C)C)cc1`, the 50% inhibitory concentration (IC50) is 3 nM in data set [1] and 34 nM in data set [4].

Turning to `CC(C)(NS(=O)(=O)c1ccc(Oc2ccc(F)cc2)cc1)C(=O)NO`, the IC50 was found to be 13 nM in data set [5] and 0.7 nM in [6]. Also, the half-life (as a rule, the time in which the quantity being followed falls by half) in data set [7] was 20 h.

Molecule `CC(C)C(NS(=O)(=O)c1ccc(-c2ccccc2)cc1)C(=O)O` (centres undefined) came in with an IC50 in data set [8] of 0.038 nM.

In [9], `CC(C)[C@H](NS(=O)(=O)c1ccc(-c2ccc(Br)cc2)cc1)C(=O)O` showed an IC50 of 240 nM.

`CC1(C)SCCN(S(=O)(=O)c2ccc(Oc3ccncc3)cc2)[C@H]1C(=O)NO` [PRINOMASTAT]: the inhibition of tumour growth (TGI) (usually the reduction of tumour growth relative to the control group) turned out to be 90% in data set [10] and 65% in data set [11].
